In publication PMC4955970, “Stable, synthetic analogs of diadenosine tetraphosphate inhibit rat and human P2X3 receptors and inflammatory pain” (Molecular Pain, 2016):
“Also recorded” adds a separate entry of the source.

Experiments:
[1] = biological target: T1, native P2X3Rs in DRG neurons (Rattus norvegicus, UniProt P49654); experiment: Whole-cell recording of α,β-meATP currents in cultured dorsal root ganglion (DRG) neurons; format: cell-based; settings: DRG neuron, read-out: inhibition of sustained residual component in DRG neurons
T1 construct: effects of AppNHppA on native P2X3Rs in TG, DRG, and NG neurons were investigated; endogenous in cells; host or cells: cultured rat trigeminal ganglion (TG) or dorsal root ganglion (DRG) neurons
T1 sequence (P49654 1-397): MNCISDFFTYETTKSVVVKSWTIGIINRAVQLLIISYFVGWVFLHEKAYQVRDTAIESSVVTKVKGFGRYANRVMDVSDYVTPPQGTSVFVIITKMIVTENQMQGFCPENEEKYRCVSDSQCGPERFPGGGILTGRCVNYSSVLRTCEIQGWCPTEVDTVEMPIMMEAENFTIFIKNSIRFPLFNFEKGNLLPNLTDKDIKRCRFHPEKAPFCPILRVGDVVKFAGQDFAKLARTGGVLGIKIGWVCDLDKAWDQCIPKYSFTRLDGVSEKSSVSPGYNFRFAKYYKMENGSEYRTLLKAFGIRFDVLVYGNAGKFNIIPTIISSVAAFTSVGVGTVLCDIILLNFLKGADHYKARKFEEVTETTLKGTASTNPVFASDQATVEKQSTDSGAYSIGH
T1 sequence (P49653 1-472 partner): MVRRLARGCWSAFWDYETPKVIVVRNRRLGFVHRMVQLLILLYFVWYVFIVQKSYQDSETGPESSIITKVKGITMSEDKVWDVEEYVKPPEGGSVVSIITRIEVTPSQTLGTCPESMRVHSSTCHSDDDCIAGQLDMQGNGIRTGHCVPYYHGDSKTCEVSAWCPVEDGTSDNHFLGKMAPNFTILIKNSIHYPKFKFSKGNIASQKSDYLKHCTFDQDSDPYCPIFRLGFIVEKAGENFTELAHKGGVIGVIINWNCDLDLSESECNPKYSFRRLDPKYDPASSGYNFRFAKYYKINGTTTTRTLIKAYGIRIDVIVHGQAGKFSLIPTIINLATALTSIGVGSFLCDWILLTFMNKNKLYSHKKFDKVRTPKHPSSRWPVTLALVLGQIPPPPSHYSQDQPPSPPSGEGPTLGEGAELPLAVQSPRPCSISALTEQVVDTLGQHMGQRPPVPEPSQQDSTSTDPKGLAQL
Protocol: (§1) Rat trigeminal, nodose, or dorsal root ganglion (TG, NG, and DRG, respectivley) neurons in culture were prepared as described previously.[46],[47] Neurons were plated on poly-L-lysine (0.2 mg/ml)-coated Petri dishes and cultured for one to two days under an atmosphere containing 5% CO2. Cells were used within two days of plating when they lacked processes. HEK293T cells were prepared as reported previously[32],[48] and transfected with rat or human full-length P2X3 cDNA subcloned into pIRES2-EGFP (Clontech, Mountain View, CA, USA).
(§2) TG, NG, DRG, or HEK cells were recorded in the whole-cell configuration while being continuously superfused (at 2 ml/min) with control solution containing (in mM): 152 NaCl, 5 KCl, 1 MgCl2, 2 CaCl2, 10 glucose, and 10 HEPES; pH was adjusted to 7.4 with NaOH and osmolarity was adjusted to 320 mOsM with glucose. […] Responses to selective P2X3R agonist α,β-methylene-ATP (α,β-meATP; resistant to ectoATPase hydrolysis, Sigma-Aldrich) were measured using an EPC-9 amplifier operated by HEKA Patch Master software (HEKA Electronik, Germany). Cells were voltage-clamped at −70 mV. In most cells, series resistance was compensated by 80%. To determine EC50 values, dose-response curves were constructed for α,β-meATP by administering different agonist doses same cells and fitting data to a logistic equation (Origin 8.0, Microcal, Northampton, MA). […]

[2] = system: native P2X3Rs / P2X2/3Rs in NG neurons; experiment: Whole-cell recording of α,β-meATP currents in cultured nodose ganglion (NG) neurons; format: cell-based, rat; settings: 1 µM, 6 min; 10 µM α,β-meATP
Protocol: as §1, §2

[3] = biological target: T2, native P2X3Rs / P2X2/3Rs in NG neurons (Rattus norvegicus, UniProt P49653+P49654); experiment: as above; format: cell-based; settings: read-out: inhibition of sustained residual component in NG neurons
T2 construct: effects of AppNHppA on native P2X3Rs in TG, DRG, and NG neurons were investigated; while NG neurons express heteromeric P2X2/3Rs subunits; endogenous in cells; host or cells: cultured rat nodose ganglion (NG) neurons
T2 sequence (P49654 1-397): T1 sequence (P49654 1-397)
T2 sequence (P49653 1-472): T1 sequence (P49653 1-472 partner)
Protocol: as §1, §2

rat P2X4 receptors = biological target: T3, rat P2X4 receptors (Rattus norvegicus, UniProt P51577); experiment: Whole-cell patch clamp on HEK293 cells expressing rat P2X4 receptors (ATP-induced currents); format: cell-based; settings: 1 µM; 10 µM ATP every 2 min
T3 construct: expressed in transfected cells; host or cells: HEK293
T3 sequence (P51577 1-388): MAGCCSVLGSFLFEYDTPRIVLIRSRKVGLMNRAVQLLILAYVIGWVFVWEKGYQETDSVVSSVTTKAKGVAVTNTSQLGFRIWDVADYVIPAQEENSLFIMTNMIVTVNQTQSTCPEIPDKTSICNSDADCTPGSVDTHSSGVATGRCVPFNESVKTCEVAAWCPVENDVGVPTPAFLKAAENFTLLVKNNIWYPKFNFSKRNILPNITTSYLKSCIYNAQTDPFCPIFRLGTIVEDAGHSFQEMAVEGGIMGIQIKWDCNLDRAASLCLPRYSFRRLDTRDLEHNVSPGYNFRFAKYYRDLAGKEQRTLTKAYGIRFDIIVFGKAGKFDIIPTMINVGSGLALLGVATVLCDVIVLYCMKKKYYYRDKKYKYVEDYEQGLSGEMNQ

## Nc1ncnc2c1ncn2[C@@H]1O[C@H](COP(=O)(O)OP(=O)(O)NP(=O)(O)OP(=O)(O)OC[C@H]2O[C@@H](n3cnc4c(N)ncnc43)[C@H](O)[C@@H]2O)[C@@H](O)[C@H]1O [AppNHppA, diadenosine 5′,5′′′-P^1,P^4-(β,γ-imido)tetraphosphate]
[1]
  inhibition at 1 µM: 18 ± 6%
[2]
  inhibition of peak currents in NG neurons: 16.8 ± 11.8%
[3]
  inhibition at 1 µM: 2 ± 4%
Rat P2X4 receptors
  HAD or partial agonism effect on P2X4R-mediated currents: did not produce any HAD or partial agonism effects; also recorded: does not inhibit
